# Reference: US4220577A, “Iodopropargyl pyridyl and picolinyl ethers and thioethers as paint fungicides” (Givaudan Corporation, priority 1979, dated 1980)
# Columns and labels:
# Pseudomonas aeruginosa = assay: 5-fold serial dilution test in agar, MIC, B3; assay type: cell-based; conditions: 37° C., 48 hours, read-out: Minimum Inhibitory Concentration Range
# Description: (§1) Antibacterial and antifungal activity were evaluated by a 5-fold serial dilution test in agar. In this test, compounds were prepared as 6% solutions in dimethylformamide or ethanol. The 6% solution was then 5-fold serially diluted in test tubes to give the desired concentrations when mixed with agar and poured into sterile Petri dishes. Trypticase glucose extract agar was used for the bacterial testing; mildew glucose agar for the fungal testing. The bacterial plates were spot inoculated with 24-hour nutrient broth cultures and incubated at 37° C. for 48 hours. The fungal plates were spot inoculated with spore suspensions and incubated at 28° C. for seven days. At the end of the incubation periods, all plates were examined for growth. The minimum inhibitory concentration (MIC) for each organism is expressed in Table I. In the ranges presented, growth is observed only at the lower concentration.
# B3 Pseudomonas aeruginosa
# Proteus vulgaris = assay: 5-fold serial dilution test in agar, MIC, B4; assay type: cell-based; conditions: 37° C., 48 hours, read-out: Minimum Inhibitory Concentration Range
# Description: as §1
# Penicillium piscarium = assay: 5-fold serial dilution test in agar, MIC, F3; assay type: cell-based; conditions: 168 h, 28° C., seven days, read-out: Minimum Inhibitory Concentration Range
# Description: as §1
# F3 Penicillium piscarium
# Escherichia coli = assay: 5-fold serial dilution test in agar, MIC, B2; assay type: cell-based; conditions: 37° C., 48 hours, read-out: Minimum Inhibitory Concentration Range
# Description: as §1
# Staphylococcus aureus = assay: 5-fold serial dilution test in agar, MIC, B1; assay type: cell-based; conditions: 37° C., 48 hours, read-out: Minimum Inhibitory Concentration Range
# Description: as §1
# B1 Staphylococcus aureus
# Aspergillus niger = assay: 5-fold serial dilution test in agar, MIC, F1; assay type: cell-based; conditions: 168 h, 28° C., seven days, read-out: Minimum Inhibitory Concentration Range
# Description: as §1
# Aureobasidium pullulans = assay: 5-fold serial dilution test in agar, MIC, F4; assay type: cell-based; conditions: 168 h, 28° C., seven days, read-out: Minimum Inhibitory Concentration Range
# Description: as §1
# F4 Aureobasidium pullulans
# Aspergillus oryzae = assay: 5-fold serial dilution test in agar, MIC, F2; assay type: cell-based; conditions: 168 h, 28° C., seven days, read-out: Minimum Inhibitory Concentration Range
# Description: as §1
# Bacillus subtilis = assay: 5-fold serial dilution test in agar, MIC, B5; assay type: cell-based; conditions: 37° C., 48 hours, read-out: Minimum Inhibitory Concentration Range
# Description: as §1
# B5 Bacillus subtilis 4 3 μg/ml
# [1] = tested on: Aureobasidium pullulans (strain 2); assay: Antifungal activity of painted birch blades after exposure to heat and light; assay type: cell-based; set-up: key to Surface Growth: 0: No growth; 1: Slight growth; 2: Moderate growth; 3: Heavy growth; conditions: after light (300-400 nm) and heat (40° C.) four weeks
# Description: Successful paint fungicides must be stable when exposed to the elements such as heat and light. Such stability was tested in the laboratory by exposing painted sticks to heat and light. The compounds of this invention were incorporated into an exterior vinyl acetate latex paint as described in Example XXI. Birch blades (tongue depressors) were painted (two coats) and continuously exposed to light (wavelength 300-400 nm) and heat (40° C.) for four consecutive weeks. At the end of the exposure time, one-inch squares of the painted birch blades were cut and tested according to the procedure of Example XXI, using strain 2.
# [2] = tested on: Aureobasidium pullulans (strain 1); assay: Antifungal activity on painted surfaces, strain 1; assay type: cell-based; set-up: key to Surface Growth: 0: No growth; 1: Slight growth; 2: Moderate growth; 3: Heavy growth; conditions: Strain 1, three weeks
# Description: (§2) Any antifungal agent which can be used to prevent mildew on painted surfaces must be effective against Aureobasidium pullulans, the organism which is primarily responsible for mildew on painted surfaces. The effectiveness of the novel compounds was tested by incorporating the compound into an exterior latex paint, applying the paint to a surface, and testing the ability of the painted surface to prevent the growth of Aureobasidium pullulans. The tests were run as described below. The novel compounds were incorporated into an exterior vinyl acetate latex paint by mulling the compound into the paint. The compounds were tested in the paints at levels of 0.25% and 0.5%. One coat of this paint was applied to each side of a piece of Whatman #30 filter paper. Two one-inch squares were cut from the filter paper. Each square was centered on the agar surface of separate Petri dishes containing malt agar. One square was inoculated with a suspension of Aureobasidium pullulans (strain 1) which was an in-house strain used for routine antimicrobial testing. The second square was inoculated with a suspension of Aureobasidium pullulans (strain 2) which was grown from a culture obtained from the surface of a mildew infested panel. Squares painted with the same exterior vinyl acetate latex paint, but without the novel compounds of this invention, were run in parallel. The Petri dishes were then incubated at 27° C. and at greater than 90% humidity for a three week period and observed for zones of inhibition and surface growth.
# [3] = tested on: Aureobasidium pullulans (strain 2); assay: Antifungal activity on painted surfaces, strain 2; assay type: cell-based; set-up: key to Surface Growth: 0: No growth; 1: Slight growth; 2: Moderate growth; 3: Heavy growth; key to Zone of Inhibition: 0: no zone; 1-5 mm; 2: 6-10 mm; 3: 11-15 mm; 4: 16-20 mm; 5: >20 mm; conditions: Strain 2, three weeks
# Description: as §2
# mildew = assay: Outdoor field test of painted pine panels; conditions: Paint A (Vinyl acetate latex), .5%, month 4
# Excerpt: A number of the compounds were field tested in various latex paints. Pine panels (6"×12"×1/2") were given two coats of paint and, after drying, were exposed at an outdoor location subject to high heat and humidity levels. Paints containing the novel componds of this invention were compared with those containing the commercial mecurial mildewcide phenyl mecuric acetate (PMA), a commercial non-mercurial mildewcide 2-n-octyl-4-isothiazolin-3-one and 3-iodo-2-propynyloxybenzene.
# [4] = 0.25% in vinyl acetate latex paint
# [5] = 0.5% in vinyl acetate latex paint
Compound,MIC (Pseudomonas aeruginosa),MIC (Proteus vulgaris),MIC (Penicillium piscarium),MIC (Escherichia coli),MIC (Staphylococcus aureus),MIC (Aspergillus niger),MIC (Aureobasidium pullulans),MIC (Aspergillus oryzae),MIC (Bacillus subtilis),"Surface Growth [2, 5]","Zone of Inhibition [2, 5]",other results
IC#CCOc1cccnc1 [drawing 2],> 1920 µg/mL,3 to 15 µg/mL,0.12 to 0.6 µg/mL,76 to 384 µg/mL,15 to 76 µg/mL,0.03 to 0.12 µg/mL,0.12 to 0.6 µg/mL,0.12 to 0.6 µg/mL,3 to 15 µg/mL,,,
IC#CCOCc1cccnc1 [drawing 8],> 1920 µg/mL,15 to 76 µg/mL,0.12 to 0.6 µg/mL,76 to 384 µg/mL,76 to 384 µg/mL,0.03 to 0.12 µg/mL,0.6 to 3 µg/mL,0.12 to 0.6 µg/mL,76 to 384 µg/mL,,,
IC#CCSc1cccnc1 [drawing 24],,,,,,,,,,,,Surface Growth ([1]; 0.25%): 3; Surface Growth ([1]; 0.5%): 2
Nc1ncccc1OCC#CI [drawing 14],,,,,,,,,,0,2 (6-10 mm),"Surface Growth [2, 4]: 0; Surface Growth [3, 4]: 0; Zone of Inhibition [3, 4]: 0; Surface Growth [3, 5]: 0; Zone of Inhibition [3, 5]: 0"
"CCCCCCCCn1sccc1=O [II, 2-n-octyl-4-isothiazolin-3-one, reference compound]",,,,,,,,,,,,Panel Scoring (mildew): 8
IC#CCOc1ccncc1 [drawing 17],,,,,,,,,,0,2 (6-10 mm),"Surface Growth [3, 5]: 0; Zone of Inhibition [3, 5]: 1 (1-5 mm)"
IC#CCSc1cccnc1 [drawing 15],,,,,,,,,,0,3 (11-15 mm),"Surface Growth [2, 4]: 0; Zone of Inhibition [2, 4]: 2 (6-10 mm); Surface Growth [3, 4]: 0; Zone of Inhibition [3, 4]: 0; Surface Growth [3, 5]: 0; Zone of Inhibition [3, 5]: 2 (6-10 mm)"
IC#CCSc1ccncc1 [drawing 18],,,,,,,,,,0,1 (1-5 mm),"Surface Growth [2, 4]: 0; Surface Growth [3, 4]: 0; Zone of Inhibition [3, 4]: 0; Surface Growth [3, 5]: 0; Zone of Inhibition [3, 5]: 0"
IC#CCSc1cccnc1 [drawing 7],> 1920 µg/mL,> 1920 µg/mL,0.12 to 0.6 µg/mL,> 1920 µg/mL,> 1920 µg/mL,15 to 76 µg/mL,0.12 to 0.6 µg/mL,< 0.03 µg/mL,> 1920 µg/mL,,,
IC#CCOc1cccnc1 [drawing 11],,,,,,,,,,0,3 (11-15 mm),"Surface Growth [2, 4]: 0; Zone of Inhibition [2, 4]: 3 (11-15 mm)"
IC#CCOc1ccncc1 [drawing 9],> 1920 µg/mL,76 to 384 µg/mL,0.03 to 0.12 µg/mL,384 to 1920 µg/mL,384 to 1920 µg/mL,< 0.03 µg/mL,0.12 to 0.6 µg/mL,0.03 to 0.12 µg/mL,3 to 15 µg/mL,,,
IC#CCOCc1cccnc1 [drawing 25],,,,,,,,,,,,Surface Growth ([1]; 0.25%): 0; Surface Growth ([1]; 0.5%): 0; Zone of Inhibition ([1]; 0.5%): 1 (1-5 mm)
Cc1ccc(OCC#CI)c(Cl)n1 [drawing 5],> 1920 µg/mL,> 1920 µg/mL,0.12 to 0.6 µg/mL,> 1920 µg/mL,384 to 1920 µg/mL,< 0.03 µg/mL,0.03 to 0.12 µg/mL,0.03 to 0.12 µg/mL,15 to 76 µg/mL,,,
IC#CCOc1ccccc1 [reference compound],,,,,,,,,,,,Surface Growth ([1]; 0.25%): 3; Surface Growth ([1]; 0.5%): 2
